This is an account of results in article PMC10705946, “^225Ac-iPSMA-RGD for Alpha-Therapy Dual Targeting of Stromal/Tumor Cell PSMA and Integrins” (International Journal of Molecular Sciences, 2023).

SMILES strings stand for the structures.

The conditions of series [1]: mice, day 11 after treatment.
Series [2] concerns HCT116 cells. Briefly: Viability (cytotoxicity) assay at 24 h. The note with it: 2 to 4 Gy. In kind it is cell-based, human. As to the method:
Cytotoxic assays were performed in triplicate (n = 6) using HCT116 cells. After harvesting each cell line, 10,000 cells per well were placed in a 96-well plate and incubated at 37 °C to allow adherence. After 24 h, the culture medium was removed, and treatments (2 Gy, 4 Gy) were placed in each well. To deliver 2 and 4 Gy of radiation dose, 6 Bq/well and 12 Bq/well were added and exposed for 15 h. Then, the treatments were removed and replaced with the medium. The cytotoxicity was evaluated at 24 h by using the Cell proliferation assay (Roche Diagnostics GmbH, Mannheim, Germany). Statistical analysis was performed with two-way ANOVA followed by Tukey’s multiple comparisons test using GraphPad Prism 5.0 Software. Data are shown as mean ± SEM. A p < 0.05 was considered statistically significant.

In series [3] the test system is HCT116 tumor and lung, spleen, kidney, liver tissues. Briefly: Histology (H&E) and immunohistochemistry of organs and tumor. In kind it is in vivo, mice. As to the method: Formalin-fixed paraffin-embedded samples (lung, spleen, kidney and tumor), were sectioned at 4 µm sections and stained with H&E. For immunohistochemical reactions, samples were deparaffinized, hydrated, and subjected to an antigen retrieval protocol (slides were immersed in a prewarmed Citrate-EDTA buffer solution (10mM citric acid, 2 mM EDTA, 0.05% Tween 20, pH 7.0) at 100 °C for 30 min. Endogenous peroxidase was then blocked with 0.9% hydrogen peroxide (H2O2) solution for 5 min. To prevent non-specific binding, the samples were incubated with 5% bovine serum albumin (BSA) for 10 min. After subsequent washes with phosphate-buffered saline (PBS)-Tween (0.05%), samples were incubated overnight at 4 °C with primary monoclonal rabbit anti- Ki-67 [SP6] antibody (Biocare Medi-cal-CRM 325A, Pacheco, CA, USA). After subsequent washing, samples were incubated with secondary HRP donkey anti-rabbit IgG (minimal x-reactivity) antibody (Biolegend-406401 San Diego, CA) for 1 h. For mitochondrial permeabilization processes estimation, the samples were incubated overnight at 4 °C with unconjugated Bcl-2 (C2) sc-7882 antibody (Santa Cruz Biotechnology Inc., Dallas, TX, USA). As a secondary antibody, we used m-IgG1 BP-HRP: sc-525408 (Santa Cruz Biotechnology Inc., Dallas, TX, USA). Samples were incubated for 1 h. For apoptotic cell estimation, unconjugated active (cleaved) Caspase-3 Monoclonal Antibody bsm-33199M (Bioss Inc., Woburn, MA, USA) was used. The samples were incubated overnight at 4 °C, and the secondary antibody was goat Anti-Mouse IgG (Fc specific)–peroxidase antibody A2554 (Millipore-Sigma Aldrich, Merck KGaA, Darmstadt, Germany). Samples were incubated for 1 h. Both primary and secondary antibodies were used at a 1:100 dilution. To visualize the immunoreactions, the samples were washed with distilled water and Tris-buffered saline-Tween (TBST) for 5 min, and the diaminobenzidine (DAB) (Dako Liquid DAB+ Substrate Chromogen System K3468) was applied for 60 s. Excess chromogen was removed by washing with PBS-Tween. Finally, the slides were counterstained with Harris hematoxylin, dehydrated, and coverslipped. As a negative control, immunoreactions were performed using the same method with PBS instead of the primary antibody. Images were captured using a Lumenera INFINITY X-32 MP camera in a Carl Zeiss Axiostar microscope.

A short description of series [4]: Stability in saline solution (0.9% NaCl) and human serum by radio-HPLC. The note with it: in both saline and serum. Format: physicochemical. As to the method: To evaluate the radiochemical purity, a reversed-phase HPLC system with Waters Millenium 32 software coupled to an in-line UV-Vis and radioactivity detector was used, as previously detailed. To recover free ^225Ac and ^225Ac-HEHA-iPSMA, fractions of 1.0 mL were collected, and the activity quantification was through the 218 keV-gamma emission of Fr-221 by assuming secular equilibrium.

For series [5] the following is noted: HCT116 tumor-bearing mice, 11 days after administration (37 kBq). As to the method:
All animal procedures followed the Ethical Regulations for the Handling of Laboratory Animals (NOM-062-ZOO-1999) and the requirements of the Institutional Animal Care and Use Committee, according to an approved protocol (CICUAL-08-2018-2021). […] Mice were injected with 3.7 kBq (50 µL) of ^225Ac-iPSMA-RGD and necropsied at 1, 3, 24, 72, and 96 h (n = 3). The liver, heart, kidney, pancreas, lung, spleen, small intestine, and stomach were measured using the Francium-221 photopeak (218 keV) in a hyperpure germanium gamma spectrometer (Ortec, Atlanta, GA, USA). Results were recorded as a percentage of injected dose (%ID) per organ. Blood and bone samples were also dissected, and the associated activity was recorded as %ID/g. A second group of mice was inoculated subcutaneously with 1 × 10^6 HCT116 cells. […] Animals were necropsied on day 11 post-treatment, as described above. Radioisotopic/X-ray ex vivo images of the source organs and tumor were obtained in a preclinical imaging system (Bruker, XTREME, Billerica, MA, USA).

Series [6] relates to HCT116 cells. The series is described as follows: Reactive oxygen species, Muse Oxidative Stress kit. In kind it is cell-based, human. The note with it: for M1 (ROS plot gate) / M2 (ROS plot gate): representative plot. As to the method:
Reactive oxygen species (ROS) were detected with the Muse™ Oxidative Stress kit, (Merck Millipore, Burlington, MA, USA) by measuring the produced intracellular superoxide radicals through dihydroethidium fluorescence. H2O2 (40 nM) was used as the positive control. Briefly, cells were seeded in cell culture flasks at a density of 1 × 10^6 cells and exposed to 4.5 Bq (2 Gy) and 9 Bq (4 Gy) of ^225Ac-iPSMA-RGD. Untreated cells were used as the control group. First, cells were trypsinized and suspended in 10 μL of 1X Assay Buffer. Then 190 μL of the oxidative stress reagent working solution was added to each cell suspension. The suspension was then gently vortexed and incubated at 37 °C with 5% CO2 for 30 min. Fluorescent intensities were examined by flow cytometry using a Muse Cell Analyzer (Merck Millipore, Burlington, MA, USA) and were performed in triplicate. Statistical analysis was performed with two-way ANOVA followed by Tukey’s multiple comparisons test using GraphPad Prism 5.0 Software. Data are shown as mean ± SEM. A p < 0.05 was considered statistically significant.

Series [7] concerns HCT116 tumors. The series is described as follows: Tumor size progression after treatment. Format: in vivo, mice. The note with it: 37 kBq.
Procedure: A second group of mice was inoculated subcutaneously with 1 × 10^6 HCT116 cells. After the mice developed a tumor (0.220 ± 0.030 g), they were treated with 3.7 kBq (50 µL) of ^225Ac-iPSMA-RGD (n = 3) via tail vein injection. Animals were necropsied on day 11 post-treatment, as described above.
[8] abbreviates: HCT116 tumor, immunohistochemistry.

For the compound `N=C(N)NCCC[C@@H]1NC(=O)[C@H](CCCCNC(=O)CCCN2C(=O)CC(SC[C@H](NC(=O)c3ccc(NNC(=S)Nc4ccc(CC5CN(CC(=O)O)CCN(CC(=O)O)CCN(CC(=O)O)CCN(CC(=O)O)CCN(CC(=O)O)CCN5CC(=O)O)cc4)nc3)C(=O)N[C@@H](Cc3ccc4ccccc4c3)C(=O)NCCCC[C@H](NC(=O)N[C@@H](CCC(=O)O)C(=O)O)C(=O)O)C2=O)NC(=O)[C@@H](Cc2ccccc2)NC(=O)[C@H](CC(=O)O)NC(=O)CNC1=O` (some centres unmarked) [^225Ac-iPSMA-RGD, ^225Ac-HEHA-HYNIC-iPSMA-RGD, metal not drawn], in series [1], the “Renal or hepatic function damage” value is recorded as “no damage to renal or hepatic function was detected”, the Serum alanine aminotransferase was 70 ± 8 IU/L, the Serum aspartate aminotransferase was found to be 141 ± 19 IU/L and the Serum creatinine amounted to 0.215 ± 0.071 mg/dL. In series [2], the Cell viability entry was “dose-dependent decrease in cell viability”. For the same compound, in series [3] (setting [8]), the “Bcl-2 expression in tumor” value is “inhibited the Bcl-2 expression”, the “Caspase-3 activity in tumor” value is reported as “upregulated the Caspase-3 activity” and the “Tumor proliferative activity (Ki67 expression) vs untreated mice” value is recorded as “significantly lower”. Besides, the “Histological (H&E) evaluation of lung, spleen, kidney and liver” value in series [3] (treated mice vs untreated mice) is given as “no pathologic changes”. Also, the “Decrease of radiochemical purity” value in series [4] (5 h after preparation) came to 2%. For the same compound, in series [4] (24 h after preparation), the “Decrease of radiochemical purity” value is on record as 10%. Moreover, the “Decrease of radiochemical purity” value in series [4] (72 h after preparation) was found to be 30%. Moreover, the “Tissue retention in ex-vivo radioisotopic imaging” value in series [5] is reported as “the tissue accumulating the radiotracer for the longest time is the tumor”. In series [6] (4 Gy), the “Increase of HCT116 cells with oxidative stress” value is listed as “approximately 30%”. Further, in series [6] (HCT116, 2 Gy), the “M1 (ROS plot gate)” value is listed as 90.14% and the “M2 (ROS plot gate)” value was found to be 9.82%. For the same compound, in series [6] (HCT116, 4 Gy), the “M1 (ROS plot gate)” value was 59.30% and the “M2 (ROS plot gate)” value was 40.52%. In addition, in series [7] (HCT116 tumor-bearing mice), the “Tumor size progression compared to control group (untreated mice)” value is recorded as “significantly lower (p < 0.05)”. Further, in series [7] (eleven days after administration), the “Tumor size compared to ^225Ac-RGD and ^225Ac-PSMA groups” value is “significantly lower (p < 0.05)”.
